Test results as given in patent EP0791071B1, “ASSAY FOR PROLINE IMINOPEPTIDASE AND OTHER HYDROLYTIC ACTIVITIES” (LITMUS CONCEPTS, INC., priority 1994, dated 1996).
Read-outs that look alike come from different tables or passages of the source. Non-standard residues stand in square brackets, D forms with d. Residues, ends and D or L forms follow the SMILES beside them. *: point of attachment. Sta = CC(C)C[C@H](N)[C@@H](O)CC(=O)O; AMC = Cc1cc(=O)oc2cc(N*)ccc12; Isovaleryl = CC(C)CC(=O)*; Boc = CC(C)(C)OC(=O)*

How the values were obtained:
[1] = tested on: Mobiluncus curtisii ATCC strain 35241 cell hydrolysis of t-boc-L-val.L-leu.L-lys.7-amino-4-methyl coumarin; experiment: Enzyme inhibitors on cell hydrolysis of t-boc.VAL.LEU.LYS.7-AMC, PDMAC chromogen (Experiment X); type: biochemical; set-up: key to TEST COLOR: -: no red color formation; +/-: possible red color formation; +: clearly visible red color formation; ++: extremely intense red color formation; details: for TEST COLOR: t-boc.VAL.LEU.LYS.7-AMC as the conjugate, 1.5 hours at room temperature, no inhibitor 2
Description: (§1) 50 µL cell suspension, 5 µL conjugate, 10 µL inhibitor, and 35 µL buffer were added to test tubes, and the suspension incubated for 1.5 hours at room temperature. 90 µL of the incubated suspension was added to 90 µL of the chromogen solution and the color formation noted.

[2] = tested on: Mobiluncus curtisii ATCC strain 35241 cell hydrolysis of Z-L-arg.L-arg.AFC; experiment: Enzyme inhibitors on cell hydrolysis of Z-ARG.ARG.AFC, PDMAC chromogen (Experiment X); type: biochemical; set-up: key: 0: no red color formation; 0.25: faintest red color detectable visually; 0.5: distinct red color; red color between 1.0 and 2.0 in intensity; 2.0: darkest red color possible in test system; details: Z-ARG.ARG.AFC as the conjugate, 1.5 hours at room temperature, water control 2
Description: as §1

[3] = tested on: Mobiluncus curtisii ATCC strain 35241 hydrolysis of L-prolyl-beta-naphthylamide (proline iminopeptidase activity); experiment: Enzyme inhibitors on hydrolysis of L-prolyl-beta-naphthylamide, PDMAC chromogen (Experiment VIII); type: biochemical; details: PRO.NAM conjugate, 1.5 hours at room temperature, water control 2
Description: 150 µL cell suspension, 10 µL conjugate, (PRO.NAM), 10 µL inhibitor, and 30 µL buffer were added to test tubes, and the suspension incubated for 1.5 hours at room temperature. 80 µL of the suspension was removed from the incubation tubes and added to 80 µL of the chromogen solution in a second set of tubes and the color formation noted.

[4] = tested on: Mobiluncus curtisii ATCC strain 35241 cell hydrolysis of the conjugate, L-prolyl-beta-naphthylamide; type: biochemical; set-up: key: -: no red color formation; +/-: possible red color formation; +: clearly visible red color formation; ++: extremely intense red color formation; details: PRO.NAM conjugate, 2 minutes incubation, read after 3 minutes, water control 2
Description: 30 µL cell suspension, 10 µL conjugate, PRO.NAM, and 10 µL salt solution or water were added to test tubes, and the suspension incubated for 2 minutes at room temperature. 20 µL of the suspension was removed from the incubation tubes and added to Fast Garnet GBC chromogenic indicator laminae. After 3 minutes, the Fast Garnet GBC indicator laminae were examined for a red color.

[5] = tested on: Mobiluncus curtisii ATCC strain 35241 hydrolysis of the conjugate, L-arginyl-beta-naphthylamide (ARG.NAM); type: biochemical; details: pH 8.0 Tris, 1 hour at room temperature, water control 2
Description: (§2) 20 µL cell suspension, 50 µL water, 10 µL salt solution, 10 µL buffer, and 5 µL conjugate, ARG.NAM, were added to test tubes, and the suspension incubated for 1 hour at room temperature. 100 µL of the PDMAC chromogen reagent was added, and red color formation after 5 minutes was noted.

[6] = tested on: proline iminopeptidase activity in Mobiluncus curtsii ATCC strain 35241 cells; experiment: Diazonium dye indicator laminae in test devices with PRO.NAM lamina: color with Mobiluncus curtisii suspension (Experiment III); type: biochemical, Mobiluncus curtisii ATCC strain 35241; details: dye indicator lamina and PRO.NAM lamina in test device; about 40 microliters cell suspension; 10 minutes at room temperature
Description: Chromogenic indicator laminae of Fast Garnet GBC, 15 mg; Fast Black K, 57 mg; Fast Dark Blue, Fast Bordeaux, Fast Violet, and Fast Red B, 21 mg prepared as described in P[…] and proline iminopeptidase-hydrolyzable conjugate, L-prolyl-beta-naphthylamide, (13 mg/ml) prepared as described in P[…] were manually assembled into test devices (P[…]). • 1. Tests of device performance with the reporter group, beta-naphthylamine. Approximately 40 microliters of 500 micromolar beta-naphthylamine solution was added to the manually assembled kits. After 10 minutes, color formation was noted. • 2. Test kit performance with proline iminopeptidase activity in Mobiluncus curtsii ATCC strain 35241 cells.
Approximately 40 microliters of the Mobiluncus curtisii ATCC strain 35241 suspension were added to each test kit. After 10 minutes at room temperature, the appearance of color was determined.

[7] = tested on: Mobiluncus curtisii ATCC strain 35241 hydrolysis of the conjugate, L-prolyl-beta-naphthylamide; type: biochemical; set-up: key: 0: no red color formation; 0.25: faintest red color detectable visually; 0.5: distinct red color; red color between 1.0 and 2.0 in intensity; 2.0: darkest red color possible in test system; details: 10 µL of 100 mM metal salt, PRO.NAM conjugate
Description: (§3) 20 µL cell suspension, 40 µL water, 10 µL salt solution, and 10 µL conjugate solutions (PRO.NAM or ARG.NAM) were added to test tubes, and mixed thoroughly. Immediately thereafter, 20 µL aliquots were removed from each tube, and added directly to Fast Garnet GBC chromogenic indicator laminae. After 5 minutes at room temperature, the Fast Garnet GBC sheets were examined for the formation of a red color.

[8] = tested on: Mobiluncus curtisii ATCC strain 35241 hydrolysis of the conjugate, L-arginyl-beta-naphthylamide; experiment: Manganese and zinc chlorides on hydrolysis of ARG.NAM at high and low pH, Fast Garnet GBC laminae (Experiment XIII); type: biochemical; details: 10 µL of 100 mM metal salt
Description: as §3

[9] = tested on: Mobiluncus curtisii ATCC Strain 35241; experiment: Hydrolysis of conjugates by microbial cells, PDMAC chromogen in solution (Experiment IV); type: biochemical; details: preparation and pH not given
Description: 50 µL distilled water, 25 µL buffer, and 25 µL microbial suspension were mixed. 5 µL conjugate was added, and the mixture allowed to incubate for 10 minutes at room temperature. 100 µL PDMAC was added to each incubation, and the color score noted.

[10] = tested on: Mobiluncus curtisii ATCC strain 35241 proline iminopeptidase activity; experiment: Inhibition of proline iminopeptidase activity by detergents, PRO.NAM conjugate, PDMAC chromogen (Experiment VII); type: biochemical
Description: To one set of four test tubes were added 20 µL cell suspension, 5 µL conjugate, and 65 µL distilled water. After 10 minutes incubation at room temperature, 10 µL detergent and 90 µL chromogen solution was added and the color formation noted. To a second set of four test tubes were added 20 µL cell suspension, 5 µL conjugate, and 65 µL detergent solution. After 10 minutes incubation of these components at room temperature, 10 µL water and 90 µL chromogen solution was added and the color formation noted.

[11] = tested on: Mobiluncus curtisii ATCC strain 35241 hydrolysis of the conjugate, L-arginyl-beta-naphthylamide (ARG.NAM); type: biochemical; set-up: key: -: no red color formation; +/-: possible red color formation; +: clearly visible red color formation; ++: extremely intense red color formation; details: metal salt 5 mM, pH 8.0 Tris, 1 hour at room temperature, water control 2
Description: as §2

[12] = tested on: Mobiluncus curtisii ATCC strain 35241 hydrolysis of the conjugate, L-arginyl-beta-naphthylamide (ARG.NAM); type: biochemical; set-up: key: 0: no red color formation; 0.25: faintest red color detectable visually; 0.5: distinct red color; red color between 1.0 and 2.0 in intensity; 2.0: darkest red color possible in test system; details: metal salt 5 mM, pH 8.0 Tris, 1 hour at room temperature, water control 2
Description: as §2

Molecule: O[C@H](CS)[C@H](O)CS (racemic) [DTT, dithiothreitol]
- TEST COLOR ([1]; CONCENTRATION (Mm) 1): 2
- TEST COLOR ([2]; CONCENTRATION (Mm) 1): 2
- TEST COLOR ([3]; inhibitor 1 mM): 2

Molecule: [Ca+2].[Cl-].[Cl-] [CaCl2]
- TEST COLOR ([4]; metal salt 20 mM): 2
- TEST COLOR ([5]; metal salt 5 mM): 2

Molecule: O=C(O)CN(CCOCCOCCN(CC(=O)O)CC(=O)O)CC(=O)O [EGTA, ethyleneglycol-bis-(beta-aminoethyl ether)-N,N,N',N'-tetraacetic acid]
- TEST COLOR ([1]; CONCENTRATION (Mm) 5): 2
- TEST COLOR ([2]; CONCENTRATION (Mm) 5): 2
- TEST COLOR ([3]; inhibitor 5 mM): 2

Molecule: Cc1ccccc1N=Nc1ccc([N+]#N)c(C)c1 [Fast Garnet GBC]
- color formation with Mobiluncus Curtisii [6]: red

Molecule: [Cl][Mn][Cl] [MnCl2, manganese chloride]
- COLOR SCORE 5 MINUTES ([7]; pH 5, without salt 1): 1
- COLOR SCORE 5 MINUTES ([7]; pH 8, without salt 0.5): 0.5
- COLOR SCORE 5 MINUTES ([8]; pH 5, without salt 0): 0
- COLOR SCORE 5 MINUTES ([8]; pH 8, without salt 0.5): 0
- TEST COLOR ([4]; metal salt 20 mM): 2
- TEST COLOR ([5]; metal salt 5 mM): 1

Molecule: CCN1C(=O)C=CC1=O [NEM, N-ethylmaleimide]
- TEST COLOR ([1]; CONCENTRATION (Mm) 2): 2
- TEST COLOR ([2]; CONCENTRATION (Mm) 2): 2
- TEST COLOR ([3]; inhibitor 0.5 mM): 2

Molecule: O=C(O)c1cc[c]([Hg][Cl])cc1 [PCMB, para-chloromercuribenzoate]
- TEST COLOR ([3]; inhibitor 0.5 mM): 2

Molecule: O=S(=O)(F)Cc1ccccc1 [PMSF, phenyl methyl sulfonyl fluoride]
- TEST COLOR ([1]; CONCENTRATION (Mm) 0.5): 1
- inhibited activity ([1]; hydrolysis of T-boc-VAL.LEU.LYS.AMC): approximately 50%
- TEST COLOR ([2]; CONCENTRATION (Mm) 0.5): 2
- TEST COLOR ([3]; inhibitor 2 mM): 2

Molecule: Cc1cc(=O)oc2cc(NC(=O)[C@H](CCCCN)NC(=O)[C@H](CC(C)C)NC(=O)[C@@H](NC(=O)OC(C)(C)C)C(C)C)ccc12 [T-boc.VAL. LEU.LYS.AMC, Tert-butyloxycarbonyl-L-valyl-L-leucyl.L-lysyl-7-amino-4-methyl coumarin] (Boc-Val-Leu-Lys-{AMC})
- M. CURTISII PDMAC COLOR (PREP., pH) [9]: 2

Molecule: Cc1ccc(S(=O)(=O)N[C@@H](CCCCN)C(=O)CCl)cc1 [TLCK, N-tosyl-L-lysine-chloromethyl ketone]
- TEST COLOR ([1]; CONCENTRATION (Mm) 0.5): 0
- TEST COLOR ([2]; CONCENTRATION (Mm) 0.5): 0.5

Molecule: Cc1ccc(S(=O)(=O)N[C@@H](Cc2ccccc2)C(=O)CCl)cc1 [TPCK, N-tosyl-L-phenylalanine chloromethyl ketone]
- TEST COLOR ([1]; CONCENTRATION (Mm) 0.5): 0
- TEST COLOR ([2]; CONCENTRATION (Mm) 0.5): 0.5
- TEST COLOR ([3]; inhibitor 0.5 mM): 2

Molecule: CC(C)CC(=O)N[C@H](C(=O)N[C@H](C(=O)N[C@@H](CC(C)C)[C@@H](O)CC(=O)N[C@@H](C)C(=O)N[C@@H](CC(C)C)[C@@H](O)CC(=O)O)C(C)C)C(C)C [pepstatin] (Isovaleryl-VV[Sta]A[Sta]-OH)
- TEST COLOR ([1]; CONCENTRATION (Mm) 0.5): 2
- TEST COLOR ([2]; CONCENTRATION (Mm) 0.5): 2
- TEST COLOR ([3]; inhibitor 0.5 mM): 2

Molecule: CCCCCCCCCCCCCCCCCCOS(=O)(=O)[O-].[Na+] [sodium octadecyl sulfate]
- COLOR ([10]; detergent (10 µL) added after the 10 minute incubation, with the chromogen): red
- COLOR ([10]; detergent among first additions, present with cells and PRO.NAM during the 10 minute incubation, red = hydrolysis, yellow = none): yellow

Molecule: CrCl2
- TEST COLOR ([4]; metal salt 20 mM): 2

Molecule: MgCl2
- TEST COLOR ([4]; metal salt 20 mM): 2

Molecule: cupric chloride [CuCl2]
- TEST COLOR [11]: 0
- TEST COLOR ([4]; metal salt 5 mM): 0
- TEST COLOR ([5]; metal salt 1 mM): 1

Molecule: mercuric chloride [HgCl2]
- TEST COLOR ([4]; metal salt 1 mM): 0

Molecule: zinc chloride [ZnCl2]
- COLOR SCORE 5 MINUTES ([7]; pH 5, without salt 1): 1
- COLOR SCORE 5 MINUTES ([7]; pH 8, without salt 0.5): 0.5
- COLOR SCORE 5 MINUTES ([8]; pH 5, without salt 0): 0
- COLOR SCORE 5 MINUTES ([8]; pH 8, without salt 0.5): 0
- TEST COLOR ([4]; metal salt 20 mM): 2
- TEST COLOR ([5]; metal salt 1 mM): 1
- TEST COLOR [12]: 0.5
